ChEMBL document CHEMBL5584253, “Polyfunctionalized organoselenides: New synthetic approach from selenium-containing cyanohydrins and anti-melanoma activity” (Bioorg Med Chem Lett, 2024)
The source made the active and inactive calls. The calls are words filed in the database; no cut-off is given here.

Key:
BALB/3T3 [1] = assay: Cytotoxicity against mouse BALB/3T3 cells assessed as reduction in cell viability at 10 to 50 ug/ml measured after 72 hrs by neutral red staining based analysis; format: toxicity; conditions: balb/3t3, 72 h, dose 10-50 µg/ml
BALB/3T3 [2] = assay: Cytotoxicity against mouse BALB/3T3 cells assessed as reduction in cell viability at 10 to 50 ug/ml measured after 72 hrs by crystal violet staining based analysis; format: toxicity; conditions: balb/3t3, 72 h, dose 10-50 µg/ml
B16-F10 [3] = assay: Antiproliferative activity against mouse B16-F10 cells assessed as reduction in cell viability at 10 to 50 ug/ml measured after 72 hrs; format: functional, cell-based; conditions: dose 10-50 µg/ml
BALB/3T3 [4] = assay: Cytotoxicity against mouse BALB/3T3 cells assessed as reduction in cell viability at 10 to 50 ug/ml measured after 72 hrs; format: toxicity, cell-based; conditions: balb/3t3, 72 h, dose 10-50 µg/ml
B16-F10 [5] = assay: Antiproliferative activity against mouse B16-F10 cells assessed as reduction in cell number at 50 ug/ml measured after 72 hrs; format: functional, cell-based; conditions: dose 50.0 µg/ml
B16-F10 [6] = assay: Antiproliferative activity against mouse B16-F10 cells assessed as reduction in cell viability at 50 ug/ml measured after 72 hrs by neutral red uptake assay; format: functional, cell-based; conditions: dose 50.0 µg/ml
BALB/3T3 [7] = assay: Cytotoxicity against mouse BALB/3T3 cells assessed as reduction in cell viability at 50 ug/ml measured after 72 hrs; format: toxicity, cell-based; conditions: balb/3t3, 72 h, dose 50 µg/ml
B16-F10 [8] = assay: Antiproliferative activity against mouse B16-F10 cells assessed as reduction in cell number at 10 to 50 ug/ml measured after 72 hrs; format: functional, cell-based; conditions: dose 10-50 µg/ml

SMILES	Activity (BALB/3T3 [1])	Activity (BALB/3T3 [2])	Activity (BALB/3T3 [4])	further results
COC(=O)C(OC(C)=O)c1ccc([Se]c2ccccc2)cc1 (centres undefined)	Toxic	Toxic	–	–
COC(=O)C(O)c1ccc([Se]c2ccccc2)cc1 (centres undefined)	Toxic	Toxic	–	–
CCCC[Se]c1ccc(C(O)C(=O)OC)cc1 (centres undefined)	–	–	Non-Toxic	Activity (B16-F10 [3]): inactive
OCC(O)c1ccc([Se]c2ccccc2)cc1 (centres undefined)	Toxic	Toxic	–	–
CCCC[Se]c1ccc(C(O)C(=O)O)cc1 (centres undefined)	–	–	Non-Toxic	Activity (B16-F10 [5]): Active; Activity (B16-F10 [6]): Active
O=C(O)C(O)c1ccc([Se]c2ccccc2)cc1 (centres undefined)	–	–	Non-Toxic	Activity (BALB/3T3 [7]): Non-Toxic; Activity (B16-F10 [8]): Active
